Measured values as given in PMC10247784, “Physiological activation of human and mouse bitter taste receptors by bile acids” (Communications Biology, 2023).
Where “and” joins values, the source holds several entries; their conditions need not be identical. Identical values can stand only once.

Molecular target: T1, human TAS2R4 (Homo sapiens, UniProt Q9NYW5)
T1 construct: expressed in transfected cells; host or cells: HEK293T-Gα16gust44
T1 sequence (Q9NYW5 1-299): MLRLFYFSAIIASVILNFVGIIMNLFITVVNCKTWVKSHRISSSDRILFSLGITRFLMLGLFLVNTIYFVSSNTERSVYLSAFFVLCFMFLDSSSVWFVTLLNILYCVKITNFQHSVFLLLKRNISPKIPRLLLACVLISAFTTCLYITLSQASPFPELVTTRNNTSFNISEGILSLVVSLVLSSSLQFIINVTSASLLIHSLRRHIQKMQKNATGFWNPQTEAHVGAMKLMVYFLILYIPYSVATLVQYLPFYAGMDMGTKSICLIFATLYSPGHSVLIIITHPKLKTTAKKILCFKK
Experiment: Calcium imaging assay (FLIPR), HEK293T-Gα16gust44 cells transfected with human TAS2R4
Type: cell-based
How it was run: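 Calcium responses via FLIPR in receptor-transfected HEK293T-Gα16gust44 cells (Fluo-4-AM, 2.5 mM probenecid), after mock-signal subtraction and normalization to baseline and buffer (ΔF/F). Threshold concentration is the lowest dose differing from mock cells at p < 0.01 (Student's t-test), from three biological replicates in duplicate.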

C[C@H](CCC(=O)NCCS(=O)(=O)O)[C@H]1CC[C@H]2[C@@H]3[C@H](O)C[C@@H]4C[C@H](O)CC[C@]4(C)[C@H]3C[C@H](O)[C@]12C [Taurocholic Acid, taurocholic acid]
Efficacy = maximal amplitude (ΔF/F) (TAS2R4, bile acids, mean): 0.1496 | Efficacy (maximal amplitude ΔF/F), individual data points (TAS2R4, bile acids, single replicates, listed as TCA): 0.127 and 0.1657 and 0.1561 | Δ F/F (TAS2R4, conc. 0,01 mM): 0.0134 | Δ F/F (TAS2R4, conc. 0,1 mM): 0.09538 | Δ F/F (TAS2R4, conc. 0,03 mM): 0.04001 | Δ F/F (TAS2R4, conc. 0,3 mM): 0.1496 | Δ F/F (TAS2R4, conc. 0,001 mM): 0.005857 | Δ F/F (TAS2R4, conc. 0,003 mM): 0.007034 | RLU, fluorescence trace (Time (s) 0): 0 RLU | RLU, fluorescence trace (Time (s) 2): -24.6054 RLU | RLU, fluorescence trace (Time (s) 4): 12.8274 RLU | RLU, fluorescence trace (Time (s) 6): 3.789 RLU | RLU, fluorescence trace (Time (s) 8): -20.122 RLU | RLU, fluorescence trace (Time (s) 12): 7.77 RLU | RLU, fluorescence trace (Time (s) 14): -34.8945 RLU | RLU, fluorescence trace (Time (s) 16): -37.677 RLU | RLU, fluorescence trace (Time (s) 18): -48.5281 RLU | RLU, fluorescence trace (Time (s) 18.766 (TCA, TLCA: 18.782)): 30.085 RLU | RLU, fluorescence trace (Time (s) 20.781 (TCA, TLCA: 20.782)): 9.231 RLU | RLU, fluorescence trace (Time (s) 22.781 (TCA, TLCA: 22.782)): 3.151 RLU | RLU, fluorescence trace (Time (s) 24.781 (TCA, TLCA: 24.782)): 34.1327 RLU | RLU, fluorescence trace (Time (s) 26.781 (TCA, TLCA: 26.782)): 57.6073 RLU | RLU, fluorescence trace (Time (s) 28.781 (TCA, TLCA: 28.782)): 122.11 RLU | RLU, fluorescence trace (Time (s) 30.781 (TCA, TLCA: 30.782)): 164.035 RLU | RLU, fluorescence trace (Time (s) 32.781 (TCA, TLCA: 32.782)): 242.016 RLU | RLU, fluorescence trace (Time (s) 34.781 (TCA, TLCA: 34.782)): 272.716 RLU | RLU, fluorescence trace (Time (s) 36.781 (TCA, TLCA: 36.782)): 320.809 RLU | RLU, fluorescence trace (Time (s) 38.781 (TCA, TLCA: 38.782)): 384.052 RLU | RLU, fluorescence trace (Time (s) 40.781 (TCA, TLCA: 40.782)): 404.135 RLU | RLU, fluorescence trace (Time (s) 42.781 (TCA, TLCA: 42.782)): 433.94 RLU | RLU, fluorescence trace (Time (s) 44.781 (TCA, TLCA: 44.782)): 475.477 RLU | RLU, fluorescence trace (Time (s) 46.781 (TCA, TLCA: 46.782)): 493.347 RLU | RLU, fluorescence trace (Time (s) 48.781 (TCA, TLCA: 48.782)): 501.503 RLU | RLU, fluorescence trace (Time (s) 50.781 (TCA, TLCA: 50.782)): 547.521 RLU | RLU, fluorescence trace (Time (s) 52.781 (TCA, TLCA: 52.782)): 553.791 RLU | RLU, fluorescence trace (Time (s) 54.781 (TCA, TLCA: 54.782)): 588.235 RLU | RLU, fluorescence trace (Time (s) 56.781 (TCA, TLCA: 56.782)): 548.835 RLU | RLU, fluorescence trace (Time (s) 58.781 (TCA, TLCA: 58.782)): 588.475 RLU | RLU, fluorescence trace (Time (s) 60.781 (TCA, TLCA: 60.782)): 601.608 RLU | RLU, fluorescence trace (Time (s) 62.781 (TCA, TLCA: 62.782)): 626.215 RLU | RLU, fluorescence trace (Time (s) 64.781 (TCA, TLCA: 64.782)): 626.188 RLU | RLU, fluorescence trace (Time (s) 66.781 (TCA, TLCA: 66.782)): 619.641 RLU | RLU, fluorescence trace (Time (s) 68.781 (TCA, TLCA: 68.782)): 624.108 RLU | RLU, fluorescence trace (Time (s) 70.781 (TCA, TLCA: 70.782)): 638.032 RLU | RLU, fluorescence trace (Time (s) 72.781 (TCA, TLCA: 72.782)): 646.123 RLU | RLU, fluorescence trace (Time (s) 74.781 (TCA, TLCA: 74.782)): 657.793 RLU | RLU, fluorescence trace (Time (s) 76.781 (TCA, TLCA: 76.782)): 666.37 RLU | RLU, fluorescence trace (Time (s) 78.781 (TCA, TLCA: 78.782)): 678.287 RLU | RLU, fluorescence trace (Time (s) 80.781 (TCA, TLCA: 80.782)): 665.284 RLU | RLU, fluorescence trace (Time (s) 82.781 (TCA, TLCA: 82.782)): 655.873 RLU | RLU, fluorescence trace (Time (s) 84.781 (TCA, TLCA: 84.782)): 679.941 RLU | RLU, fluorescence trace (Time (s) 86.781 (TCA, TLCA: 86.782)): 648.406 RLU | RLU, fluorescence trace (Time (s) 88.781 (TCA, TLCA: 88.782)): 644.228 RLU | RLU, fluorescence trace (Time (s) 90.781 (TCA, TLCA: 90.782)): 650.88 RLU | RLU, fluorescence trace (Time (s) 92.781 (TCA, TLCA: 92.782)): 631.638 RLU | RLU, fluorescence trace (Time (s) 94.781 (TCA, TLCA: 94.782)): 665.026 RLU | RLU, fluorescence trace (Time (s) 96.781 (TCA, TLCA: 96.782)): 673.234 RLU | RLU, fluorescence trace (Time (s) 98.781 (TCA, TLCA: 98.782)): 653.956 RLU | RLU, fluorescence trace (Time (s) 100.781 (TCA, TLCA: 100.782)): 661.771 RLU | RLU, fluorescence trace (Time (s) 102.781 (TCA, TLCA: 102.782)): 636.296 RLU | RLU, fluorescence trace (Time (s) 104.781 (TCA, TLCA: 104.782)): 641.127 RLU | RLU, fluorescence trace (Time (s) 106.781 (TCA, TLCA: 106.782)): 615.791 RLU | RLU, fluorescence trace (Time (s) 108.781 (TCA, TLCA: 108.782)): 618.091 RLU | RLU, fluorescence trace (Time (s) 110.781 (TCA, TLCA: 110.782)): 644.691 RLU | RLU, fluorescence trace (Time (s) 112.781 (TCA, TLCA: 112.782)): 640.87 RLU | RLU, fluorescence trace (Time (s) 114.781 (TCA, TLCA: 114.782)): 609.041 RLU | RLU, fluorescence trace (Time (s) 116.781 (TCA, TLCA: 116.782)): 616.307 RLU | RLU, fluorescence trace (Time (s) 118.781 (TCA, TLCA: 118.782)): 584.502 RLU | RLU, fluorescence trace (Time (s) 120.781 (TCA, TLCA: 120.782)): 602.866 RLU | RLU, fluorescence trace (Time (s) 122.781 (TCA, TLCA: 122.782)): 581.164 RLU | RLU, fluorescence trace (Time (s) 124.781 (TCA, TLCA: 124.782)): 578.218 RLU | RLU, fluorescence trace (Time (s) 126.781 (TCA, TLCA: 126.782)): 564.916 RLU | RLU, fluorescence trace (Time (s) 128.781 (TCA, TLCA: 128.782)): 590.827 RLU | RLU, fluorescence trace (Time (s) 130.781 (TCA, TLCA: 130.782)): 571.073 RLU | RLU, fluorescence trace (Time (s) 132.781 (TCA, TLCA: 132.782)): 555.387 RLU | RLU, fluorescence trace (Time (s) 134.781 (TCA, TLCA: 134.782)): 548.858 RLU | RLU, fluorescence trace (Time (s) 136.781 (TCA, TLCA: 136.782)): 535.742 RLU | RLU, fluorescence trace (Time (s) 137.547): 524.559 RLU | RLU, fluorescence trace (Time (s) 143.547): 525.352 RLU | RLU, fluorescence trace (Time (s) 149.547): 486.955 RLU | RLU, fluorescence trace (Time (s) 155.547): 493.52 RLU | RLU, fluorescence trace (Time (s) 161.547): 446.448 RLU | RLU, fluorescence trace (Time (s) 167.547): 435.019 RLU | RLU, fluorescence trace (Time (s) 173.547): 386.716 RLU | RLU, fluorescence trace (Time (s) 179.547): 393.434 RLU | RLU, fluorescence trace (Time (s) 185.547): 372.463 RLU | RLU, fluorescence trace (Time (s) 191.547): 357.243 RLU | RLU, fluorescence trace (Time (s) 197.547): 314.74 RLU | RLU, fluorescence trace (Time (s) 203.547): 318.63 RLU | RLU, fluorescence trace (Time (s) 209.547): 306.856 RLU | RLU, fluorescence trace (Time (s) 215.547): 260.931 RLU | RLU, fluorescence trace (Time (s) 221.547): 241.962 RLU | RLU, fluorescence trace (Time (s) 227.547): 290.972 RLU | RLU, fluorescence trace (Time (s) 233.547): 269.304 RLU | RLU, fluorescence trace (Time (s) 239.547): 267.596 RLU | RLU, fluorescence trace (Time (s) 245.547): 219.689 RLU | RLU, fluorescence trace (Time (s) 293.547): 189.99 RLU | RLU, fluorescence trace (Time (s) 299.547): 175.107 RLU | RLU, fluorescence trace (Time (s) 305.547): 192.603 RLU | RLU, fluorescence trace (Time (s) 311.547): 188.074 RLU | RLU, fluorescence trace (Time (s) 317.547): 199.388 RLU | RLU, fluorescence trace (Time (s) 323.547): 170.101 RLU | RLU, fluorescence trace (Time (s) 329.547): 196.926 RLU | RLU, fluorescence trace (Time (s) 335.547): 162.738 RLU | RLU, fluorescence trace (Time (s) 341.547): 164.861 RLU | RLU, fluorescence trace (Time (s) 347.547): 156.987 RLU | RLU, fluorescence trace (Time (s) 353.547): 175.115 RLU | RLU, fluorescence trace (Time (s) 359.547): 151.684 RLU | Activation threshold concentration TAS2R4 (lowest concentration with significantly increased fluorescence vs empty vector (p < 0.01)): 100 µM
